Measured values published in US5446049A, “Azanoradamantanes for treatment of conditions responsive to 5-HT agonists and/or antagonists” (priority 1994, dated 1995).

What was measured:
5-HT4 receptor [1] = target: T1, 5-HT4 receptor (Rattus norvegicus, UniProt Q62758); type: cell-based; details: Table I; tissues from 5 rats; carbachol 3 μM; read-out: 5-HT4 Agonism (Rat TMM) In Vitro Assay: EC50 values
T1 construct: The inner tunica muscularis mucosa was mounted under 0.2-0.3 g of tension in a tissue bath; from tissue; host or cells: rat intrathoracic oesophagus, tunica muscularis mucosae
Description: (§1) (Baxter et al., Naunyn Schmied Arch. Pharmacol, 1991, 343, 439). […] One with skill in the art could determine the activity of the compounds of the present invention using the methodology of these assays, described herein, without undue experimentation.
One 2 cm segment of intrathoracic esophagus proximal to the diaphragm was removed from male rats, weighing approximately 300 gm, and the outer muscle layers removed. The inner tunica muscularis mucosa was mounted under 0.2-0.3 g of tension in a tissue bath containing oxygenated Tyrode's solution at 37° C. […] Following a 30 min equilibrium period, tissues were isometrically contracted with carbachol (3 μM) to obtain a tonic contraction. A stable plateau was obtained within 20 min when test compound was added cumulatively to relax the muscle strip. EC50 values were obtained for each agonist in tissues from 5 rats.

5-HT3 receptor = target: T2, 5-HT3 receptor (Rattus norvegicus, UniProt P35563); assay: 5-HT3 radioligand receptor binding assay ([3H]-GR65630, rat brain cortex membranes)
T2 construct: Brain cortices were obtained from male rats and a membrane fraction prepared by standard techniques; from tissue; host or cells: rat brain cortex membranes
T2 sequence (P35563 24-483): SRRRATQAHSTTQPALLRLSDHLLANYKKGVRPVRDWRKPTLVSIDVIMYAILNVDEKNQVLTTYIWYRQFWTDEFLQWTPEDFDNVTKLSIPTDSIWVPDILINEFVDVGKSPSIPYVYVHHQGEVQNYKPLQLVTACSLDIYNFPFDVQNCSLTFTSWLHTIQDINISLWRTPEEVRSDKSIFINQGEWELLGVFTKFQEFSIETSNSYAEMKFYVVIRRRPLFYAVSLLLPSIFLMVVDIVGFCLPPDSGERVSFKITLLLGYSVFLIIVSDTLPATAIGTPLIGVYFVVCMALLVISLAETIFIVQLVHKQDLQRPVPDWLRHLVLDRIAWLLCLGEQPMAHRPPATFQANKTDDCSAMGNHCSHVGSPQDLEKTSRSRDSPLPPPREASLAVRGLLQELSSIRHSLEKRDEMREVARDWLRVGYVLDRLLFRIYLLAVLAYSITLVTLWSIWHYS
Method: as §1
Procedure: GR65630 binds to the 5-HT3 receptor. Brain cortices were obtained from male rats and a membrane fraction prepared by standard techniques. 0.04 mg of membrane prep was incubated with 0.2 nM [^3 H]-GR65630 for 66 minutes at 22° C. […] Membranes were filtered and washed 3 times and the filters were counted to determine [^3 H]-GR65630 specifically bound. (Kilpatrick G. J., Jones B. J. and Tyers M. B., Identification and Distribution of 5-HT3 Receptors in Rat Brain Using Radioligand Binding Assay, Nature, 330, 746-748 (1987)).

5-HT4 receptor [2] = details: Dumuis et al 1989; mouse embryonic colliculi neurons; cited from earlier work
5-HT4 receptors = details: Craig and Clarke; cited from earlier work
myenteric neurons = details: Nemeth and Gullikson; cited from earlier work
antroduodenal motility = details: Van Nueten et al 1989, cited from earlier work
gastric emptying = details: cited from earlier work; for gastric emptying: Gidda et al 1988; for gastric emptying rates in vivo: Buchheit et al 1985
GI transit = details: cited from earlier work
[3] = test system: guinea pig stomach strips; details: cited from earlier work; for guinea pig stomach muscle strip contraction in vitro: Buchheit et al 1985
charcoal meal transit = details: Kimura et al 1989; cited from earlier work
GI tract = details: various animal models; cited from earlier work
[4] = test system: 5-HT3-mediated Bezold Jarisch reflex; details: in vivo; cited from earlier work

T1 sequence (Q62758 whole entry): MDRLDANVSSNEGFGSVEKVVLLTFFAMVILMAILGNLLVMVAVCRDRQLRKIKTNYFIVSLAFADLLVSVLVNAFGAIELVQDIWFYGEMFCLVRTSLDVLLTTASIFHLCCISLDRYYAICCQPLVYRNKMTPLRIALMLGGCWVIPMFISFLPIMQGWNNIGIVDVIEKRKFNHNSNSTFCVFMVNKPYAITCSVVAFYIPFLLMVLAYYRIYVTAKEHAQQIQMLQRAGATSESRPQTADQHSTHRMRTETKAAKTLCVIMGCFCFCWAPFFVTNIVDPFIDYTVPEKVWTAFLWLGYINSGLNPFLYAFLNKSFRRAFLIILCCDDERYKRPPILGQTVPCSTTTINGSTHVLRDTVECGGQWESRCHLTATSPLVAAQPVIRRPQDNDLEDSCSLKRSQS

Question: What does the source list for `COc1cc(N)c(Cl)cc1C(=O)NC[C@@H]1[C@H]2C[C@H]3C[C@@H]1N(C3)C2` (relative stereo) [Example 1, 4-amino-5-chloro-N-(hexahydro-2β,6β-methano-1H,7aα-pyrrolizin-1β-ylmethyl)-2-methoxybenzamide]?
Answer: EC50 (5-HT4 receptor [1]): 175 nM; Ki (5-HT3 receptor; read-out: Ki, effect of compounds on [3H]-GR65630 bound, Table II, 0.2 nM [3H]-GR65630, 66 minutes, 22° C.): 5.5 nM

Question: With `COc1cc(N)c(Cl)cc1C(=O)NC[C@@H]1[C@@H]2C[C@@H]3C[C@H]1N(C3)C2` (relative stereo) [Example 2, 4-amino-5-chloro-N-(hexahydro-2β,6β-methano-1H,7aα-pyrrolizin-1β-ylmethyl)-2-methoxybenzamide] as the compound, how does the EC50 (5-HT4 receptor [1]) read?
Answer: 415 nM

Question: Which “agonist activity at 5-HT4 receptor” value (5-HT4 receptor [2]) does the source give for `COc1cc(N)c(Cl)cc1C(=O)NC1CCN2CCCC1C2` (stereo not shown) [BRL-24924] here?
Answer: agonist activity

Question: And the “peristaltic reflex evoked, mediated through agonism at 5-HT4 receptors” value (5-HT4 receptors)?
Answer: mediated through agonism at 5-HT4 receptors

Question: What about the “ability to depolarize myenteric neurons versus 5-HT3 antagonism” value (myenteric neurons) of the same compound?
Answer: unrelated to their properties of 5-HT3 antagonism

Question: For `COc1cc(N)c(Cl)cc1C(=O)NC1CCN(CCCOc2ccc(F)cc2)CC1OC` (stereo not shown) [Cisapride], which “antroduodenal motility in dogs” value (antroduodenal motility) is on record?
Answer: enhanced antroduodenal motility in dogs

Question: And the “agonist activity at 5-HT4 receptor” value (5-HT4 receptor [2])?
Answer: agonist activity

Question: What about the “ability to depolarize myenteric neurons versus 5-HT3 antagonism” value (myenteric neurons) of the same compound?
Answer: unrelated to their properties of 5-HT3 antagonism

Question: Which EC50 (5-HT4 receptor [1]) does the source give for `COc1cc(N)c(Cl)cc1C(=O)NC[C@@H]1[C@H]2C[C@H]3C[C@@H]1N(C3)C2` [Example 3, 4-amino-5-chloro-N-(hexahydro-2β,6β-methano-1H,7aα-pyrrolizin-1S,1α-ylmethyl)-2-methoxybenzamide] here?
Answer: 140 nM

Question: Which EC50 (5-HT4 receptor [1]) does the source give for `COc1cc(N)c(Cl)cc1C(=O)NC[C@H]1[C@@H]2C[C@@H]3C[C@H]1N(C3)C2` [Example 4, 4-amino-5-chloro-N-(hexahydro-2β,6β-methano-1H,7aα-pyrrolizin-1R,1α-ylmethyl)-2-methoxybenzamide] here?
Answer: 274 nM

Question: Which results are given for `Cc1nccn1CC1CCc2c(c3ccccc3n2C)C1=O` (stereo not shown) [GR38032]?
Answer: gastric emptying (gastric emptying): enhanced gastric emptying; GI transit in man (GI transit; Gore et al 1990): failed to accelerate GI transit; colonic transit in man (GI transit; Gore et al 1990): slowed colonic transit in man; small intestinal transit times or mouth-to-cecum transit times (GI transit; Talley et al 1989, man): did not alter small intestinal transit times or mout-to-cecum transit times

Question: With `CN1[C@@H]2CC[C@H]1C[C@@H](OC(=O)c1c[nH]c3ccccc13)C2` [ICS 205-930] as the compound, how does the “guinea pig stomach muscle strip contraction in vitro” value [3] read?
Answer: enhanced guinea pig stomach muscle strip contraction in vitro

Question: What about the “gastric emptying rates in vivo” value (gastric emptying) of the same compound?
Answer: increases in gastric emptying rates in vivo

Question: What about the gastric emptying (gastric emptying) of the same compound?
Answer: enhanced gastric emptying

Question: What about the “effect on the responses to cisapride when coadministered” value (antroduodenal motility; dogs) of the same compound?
Answer: did not affect the responses to cisapride

Question: Which “guinea pig stomach muscle strip contraction in vitro” value [3] does the source give for `CN1[C@@H]2CC[C@H]1C[C@@H](OC(=O)c1cc(Cl)cc(Cl)c1)C2` [MDL 72222] here?
Answer: enhanced guinea pig stomach muscle strip contraction in vitro

Question: And the “gastric emptying rates in vivo” value (gastric emptying)?
Answer: increases in gastric emptying rates in vivo

Question: With `Cc1nccn1CC1CCc2c(c3ccccc3n2C)C1=O.Cl.O.O` (stereo not shown) [SN-307] as the compound, how does the “transit of a charcoal meal in mice” value (charcoal meal transit) read?
Answer: enhanced transit of a charcoal meal in mice

Question: For `NCCc1c[nH]c2ccc(O)cc12` [Serotonin, 5-hydroxytryptamine], which “peristaltic reflex evoked, mediated through agonism at 5-HT4 receptors” value (5-HT4 receptors) is on record?
Answer: mediated through agonism at 5-HT4 receptors

Question: And the “peristalsis in the GI tract” value (GI tract)?
Answer: promote peristalsis in the GI tract

Question: What does the source list for `Cc1nc[nH]c1CCC(=O)c1cn(C)c2ccccc12` [[^3 H]-GR65630]?
Answer: % Specific Binding (5-HT3 receptor; radioligand, non-specific binding with 1 uM ICS 205-930): 70%; Bmax (5-HT3 receptor; radioligand, rat brain cortex membranes): 154 fmol/mg protein

Question: Which “guinea pig stomach muscle strip contraction in vitro” value [3] does the source give for `CCN(CC)CCNC(=O)c1cc(Cl)c(N)cc1OC` [metoclopramide] here?
Answer: enhanced guinea pig stomach muscle strip contraction in vitro

Question: What about the “electrical-field stimulated contractions in guinea pig stomach strips” value ([3]; Gunning and Naylor 1985) of the same compound?
Answer: enhanced electrical-field stimulated contractions in guinea pig stomach strips

Question: And the “gastric emptying rates in vivo” value (gastric emptying)?
Answer: increases in gastric emptying rates in vivo

Question: And the “block of the 5-HT3-mediated Bezold Jarisch reflex” value [4]?
Answer: blocks the 5-HT3-mediated Bezold Jarisch reflex

Question: Which gastric emptying (gastric emptying) does the source give for `COc1cc(N)c(Cl)cc1C(=O)NC1CN2CCC1CC2` (stereo not shown) [zacopride] here?
Answer: enhanced gastric emptying
